The source of these data is patent EP3095787A1, “[…] ACTIVE COMPOUNDS AS DAG-LIPASE INHIBITORS” (Universiteit Leiden, priority 2015, dated 2016).

What is called pIC50 is the negative decadic logarithm of the IC50, by convention in mol/L. A high value points to a small IC50.

The target of experiment [1] is T1, hDAGL-α (Homo sapiens, UniProt Q9Y4D2).
T1 sequence (Q9Y4D2 1-1042): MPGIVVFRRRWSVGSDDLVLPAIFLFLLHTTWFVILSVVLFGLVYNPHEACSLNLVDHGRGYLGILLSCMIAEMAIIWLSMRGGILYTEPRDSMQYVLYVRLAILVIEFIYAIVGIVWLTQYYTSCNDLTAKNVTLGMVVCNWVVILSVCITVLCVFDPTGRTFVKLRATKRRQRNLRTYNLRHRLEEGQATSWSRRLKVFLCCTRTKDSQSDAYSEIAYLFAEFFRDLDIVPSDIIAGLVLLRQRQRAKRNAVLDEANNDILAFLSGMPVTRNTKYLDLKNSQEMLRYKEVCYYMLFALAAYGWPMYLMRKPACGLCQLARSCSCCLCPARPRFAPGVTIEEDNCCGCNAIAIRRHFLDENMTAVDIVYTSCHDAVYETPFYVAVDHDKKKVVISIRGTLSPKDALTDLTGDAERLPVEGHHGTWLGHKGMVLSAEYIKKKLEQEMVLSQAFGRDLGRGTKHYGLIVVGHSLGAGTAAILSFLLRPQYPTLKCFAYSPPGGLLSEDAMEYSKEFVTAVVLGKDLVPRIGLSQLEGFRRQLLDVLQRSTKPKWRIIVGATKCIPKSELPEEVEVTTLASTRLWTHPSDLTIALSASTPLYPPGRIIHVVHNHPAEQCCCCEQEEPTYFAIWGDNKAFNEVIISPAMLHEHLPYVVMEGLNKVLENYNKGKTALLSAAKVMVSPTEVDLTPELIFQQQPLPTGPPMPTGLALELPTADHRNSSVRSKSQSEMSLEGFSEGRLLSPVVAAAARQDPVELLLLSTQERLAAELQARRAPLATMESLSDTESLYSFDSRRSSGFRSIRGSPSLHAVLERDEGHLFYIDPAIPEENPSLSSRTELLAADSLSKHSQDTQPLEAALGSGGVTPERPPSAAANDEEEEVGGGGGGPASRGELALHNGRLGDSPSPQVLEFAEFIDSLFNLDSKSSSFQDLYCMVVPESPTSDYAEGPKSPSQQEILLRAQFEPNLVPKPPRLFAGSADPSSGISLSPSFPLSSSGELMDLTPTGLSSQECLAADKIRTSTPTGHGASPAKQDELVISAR
Put plainly: Biochemical hDAGL-α activity assay (PNP-butyrate hydrolysis, 96 well plate). The following applies: PNP-butyrate 0.3 mM, membranes of HEK293T cells transfected with hDAGL-α. Also noted: expressed in transfected cells; host or cells: HEK293T (transient), membrane fraction. The method, then:
The biochemical hDAGL-α activity assay is based on the hydrolysis of para-nitrophenylbutyrate (PNP-butyrate) by membrane preparations from HEK293T cells transiently transfected with hDAGL-α. 200 µL reactions were performed in flat bottom Greiner 96-wells plates in a 50 mM pH 7.2 Hepes buffer. Membrane protein fractions from HEK293T cells transiently transfected with hDAGL-α (0.05 µg/µL final concentration) were used as hDAGL-α source. Compounds to be tested were introduced in 5 µL DMSO. The mixtures were incubated for 30 minutes before 5.0 µL 12 mM PNP-butyrate (final concentration 0.3 mM) in DMSO was added (final DMSO concentration 5.0%). Kinetics were followed immediately after addition of PNP-butyrate on a plate reader (TECAN GENios® microplate reader), by measuring the OD420 every 60 seconds, for 20 minutes at 37°C. The slope of the linear region from 5-15 minutes was determined, and all experiments were performed at N = 2, n = 2 for experimental measurements and N = 2, n = 4 for controls.
Data analysis: Z'-factor of each plate was determined for the validation of each experiment, using the following formula Z' = 1-3(σpc + σnc)/(µpc - µnc). The slope from 5-15 minutes of the positive control (pc: hDAGL-α, DMSO), and the negative control (nc: Mock, DMSO) was used. Plates were accepted for further analysis when Z' > 0.6. Kinetic measurements were corrected for the average absorption of the negative control (mock, DMSO). The slope of the linear region from 5-15 minutes was determined. The average, standard deviation (SD) and standard error of mean (SEM) were calculated and normalized to the corrected positive control. Data was exported to Graphpad Prism 5.0 for the calculation of the pIC50 using a nonlinear dose-response analysis.

Experiment [2] addresses T1, hDAGL-α. Kind of experiment: DAGL-α natural substrate assay (SAG hydrolysis, glycerol based real-time fluorescence assay). The format is biochemical. Also noted: expressed in transfected cells; host or cells: HEK293T (transient), membrane preparation. The following applies: for pIC50: n=4. The text has this:
To confirm that compound 25 was also able to block conversion of the natural substrate 1-stearoyl-2-arachidonoyl-sn-glycerol of DAGL-α to the endocannabinoid 2-AG, the inventors employed a real-time, fluorescence-based assay. The DAGL-α natural substrate assay is based on the production of 2-AG from 1-stearoyl-2-arachidonoyl-sn-glycerol (SAG) hydrolysis by DAGL-α-overexpressing membrane preparations from transiently transfected HEK293T cells. The 2-AG production is coupled to the oxidation of commercially available Amplifu™Red via a multi-enzyme cascade, resulting in a fluorescent signal from the dye resorufin.
Standard assays were performed in HEMNB buffer (50 mM HEPES pH 7.4, 1 mM EDTA, 5 mM MgCl2, 100 mM NaCl, 0.5% (w/v) BSA) in black, flat clear-bottom 96-wells plates (Greiner). Final protein concentration of membrane preparations from DAGL-α-overexpressing HEK293T cells was 50 µg/mL (10 µg per well). Inhibitors were added from 40x concentrated DMSO stocks. A substrate solution of 1-stearoyl-2-arachidonoyl-sn-glycerol was prepared just prior to use. The SAG stock solution (10 mg/mL in methyl acetate) was dried under argon and subsequently dissolved in 50 mM HEPES buffer (pH 7.0) containing 0.75% (w/v) Triton X-100. The substrate solution was mixed to form an emulsion and stored on ice until use.
DAGL-α-overexpressing membranes were incubated with inhibitor for 20 min. Subsequently, assay mix containing glycerol kinase (GK), glycerol-3-phosphate oxidase (GPO), horseradish peroxidase (HRP), adenosine triphosphate (ATP), monoacylglycerol lipase (MAGL), Amplifu™Red and 1-stearoyl-2-arachidonoyl-sn-glycerol (SAG) was added and fluorescence was measured in 5 min intervals for 60 min on a GENios microplate reader (Tecan, Giessen, The Netherlands).
Standard assay concentrations: 0.2 U/mL GK, GPO and HRP, 0.125 mM ATP, 5 µg/mL MAGL-overexpressing membranes, 10 µM Amplifu™Red, 100 or 150 µM SAG, 5% DMSO, 0.0075% (w/v) Triton X-100 in a total volume of 200 µL.

Where [3] appears, read: natural substrate 1-stearoyl-2-arachidonoyl-sn-glycerol.

For `Cc1ccc(-c2cnc3nc(C(=O)CCCCCc4ccccc4)oc3c2)cc1` [Compound 25, 1-(6-(p-Tolyl)oxazolo[4,5-b]pyridin-2-yl)-6-phenylhexan-1-one], the IC50 at hDAGL-α [1] (read-out: DAGL-α Activity assay pIC50 (converted)) was 3.02 nM. In addition, the pIC50 worked out at 7.9 ± 0.08 at hDAGL-α [2] (glycerol based natural substrate assay, figure legend prints nM, unit of the source corrected) and 7.9 ± 0.08 against hDAGL-α [2] (setting [3]). The “fold increase compared to compound 1” value on hDAGL-α [2] (natural substrate assay) is recorded as 40 fold.

For the compound `O=C(CCCCCc1ccccc1)c1nc2ncccc2o1` [Compound 1, 1-(Oxazolo[4,5-b]pyridin-2-yl)-6-phenylhexan-1-one, reference compound], the “DAGL-α Activity assay pIC50” value on hDAGL-α [1] amounted to 7.43. On hDAGL-α [2] (setting [3]), this compound gave a pIC50 of 6.3 ± 0.1.
